Patent US5281619A, “Therapy for diabetic complications” (Eli Lilly and Company, priority 1993, dated 1994)
pIC50: −log10 of the molar value.

Assays:
[1] = tested on: bovine retinal capillary endothelial cells; experiment: Activation of bovine retinal capillary endothelial cells by phorbol esters (PA activity, cell number); assay type: cell-based; settings: for increase in endothelial cell activation (in words): phorbol esters known to activate PKC vs. 4-α analogues
Text: Retinal capillary endothelial cell cultures were initiated from bovine eyes using a modification of the procedure of Buzney et al., Investigative Ophthalmology and Visual Sciences, 24: 470-480 (1983). Bovine eyes were transported on ice from a local abattoir. Extraocular muscle was trimmed from the eye, and the eye bisected posterior to the ora serrata. The vitreous and anterior portion of the eye were discarded, and the neuro-retina was gently dissected from the posterior eyecup. The retinas from 20 cattle were pooled and homogenized (5 strokes of a Teflon/glass homogenizer) in Hank's saline. The homogenate was passed through a 350μ filter to remove large debris and a 210μ filter to remove large vessels. The microvessels were trapped on a 85μ filter. The microvessels were resuspended in Hank's saline and digested with 7.5 mg/ml bacterial collagenase (Boeringher Mannheim, Indianapolis) Hank's saline for 1 hour at 37° C. The cells were pelleted by centrifugation (100 xg, 10 min), resuspended in 5 ml Endothelial Growth Media (EGM, Clonetics) and seeded in a gelatin-coated T-25 flask. After 24 hours the cells were trypsinized and replated in a gelatin coated T225. At 7 days and again at 14 days the cultures were labeled with acetylated lipoproteins labeled with the fluorescent probe (1,1'-dioctadecyl-3,3,3,3,-tetramethyl-indocarbocyanine perchlorate). The endothelial cells were separated from contaminating cell types using a fluorescent cell sorter as described in Voyta et al., J. Cell Biology, 99: 2034-2040 (1984).
Retinal capillary endothelial cells were seeded into 96-well plates and grown to confluence (10^5 cells/well) in EGM containing 10% fetal bovine serum (FBS). The media was changed to Dubecco's Modified Eagle's Medium with 10% fetal bovine serum 24 hours prior to the assay. The cells were treated with 50 nM 4-β phorbol 12,13-dibutyrate (4-β PDBu) to activate PKC and produce the activated endothelial phenotype characteristic of the diabetic state. The activated cells were treated with a series of dilutions of the test compounds. The phorbol esters and the test compounds were dissolved in DMSO before adding to the culture media. The cultures were incubated at 37° C. for 48 hours. Following treatment, the cells were lysed with 25mM NH4 OH in 0.5% triton X-100.
(§1) The activation of bovine retinal capillary endothelial cells was monitored through alterations in cellular plasminogen activator (PA) activity in the cell lysates. Plasminogen activator activity was determined in a 50 μl aliquot of cell lysate using the synthetic substrate H-D-valyl-L-leucyl-lysine-p-nitroaniline dihydrochloride (Kabi).
Dose-response curves generated for 4-β PDBu and 4-β PMA indicated […] of 50 nM and 5 nM respectively. Elevated PA activity was observed only after prolonged (at least 8 hours) stimulation with phorbol esters. The PA activity continued to increase in a time and dose dependent manner for up to 72 hours, but constant stimulation with phorbol ester was required to maintain endothelial cell activation.

[2] = tested on: vasculature in streptozotocin-diabetic rats; experiment: Microvascular dysfunction associated with streptozotocin-induced diabetes in rats (permeability and blood flow); assay type: in vivo, rat; settings: 0.1% in diet, 4 to 7-week period
Method: Representative compounds were further evaluated for their ability to block the microvascular dysfunction associated with streptozotocin-induced diabetes. Rats were made diabetic with an injection of streptozotocin, and the rats were feed ad libitum with a diet containing 0.1% of a representative compound. Blood flow was measured through the use of radiolabeled microspheres while permeability was quantified using a dual label technique with iodinated albumin (^125 I/^131 I). Details of the model can be found in Tilton et al., Diabetes38: 1258-1270 (1989), and Williamson et al., J. Clin. Invest. 85: 1167-1172 (1990).
Blood flow also was elevated on induction of diabetes in these tissues. In contrast, vascular function was not affected in the brain or muscle.

[3] = tested on: Glucose-Induced Vascular Dysfunction in Normal Rats; experiment: Glucose-induced vascular dysfunction in rat granulation tissue chamber model (permeability and blood flow); assay type: in vivo; settings: twice daily for 7 days, 30-35 mM glucose
Method: Representative compounds were evaluated in situ for their ability to block the increase in blood flow and permeability induced by high glucose in a rat tissue granulation tissue chamber model. In this model circles of skin were removed from the backs of normal rats and stainless steel screw-cap chambers were mounted. New granulation tissue formed within the chambers. Addition of 30-35 mM glucose (0.5 ml) twice daily to the chambers for 7 days induced a vascular dysfunction similar to that of diabetes--that is there was an increase in blood vessel permeability and an increase in blood flow. Blood flow was measured through the use of radiolabeled microspheres, and permeability was quantified using a dual label technique with iodinated albumin (^125 I/^131 I). Details of the model can be found in Tilton, et al., Diabetes38: 1258-1270 (1989). and Williamson, et al., J. Clin. Invest. 85: 1167-1172 (1990).
Representative compounds were dissolved in DMSO and diluted in a balanced salt solution to achieve a final concentration of 20 or 50 μM. The granulation chamber tissue was treated twice daily for 7 days to determine their effects on glucose-induced vascular dysfunction. Addition of 30-35 mM glucose to the granulation chamber induced a vascular dysfunction characterized by increased vessel permeability and increased blood flow.

[4] = tested on: bovine retinal capillary endothelial cells; experiment: Inhibition of phorbol ester-induced endothelial cell activation, plasminogen activator (PA) activity in cell lysates; assay type: cell-based; settings: Bos taurus, 4-β PDBu (50 nM) activated cells, 48 hours
Text: Retinal capillary endothelial cell cultures were initiated from bovine eyes using a modification of the procedure of Buzney et al., Investigative Ophthalmology and Visual Sciences, 24: 470-480 (1983). Bovine eyes were transported on ice from a local abattoir. Extraocular muscle was trimmed from the eye, and the eye bisected posterior to the ora serrata. The vitreous and anterior portion of the eye were discarded, and the neuro-retina was gently dissected from the posterior eyecup. The retinas from 20 cattle were pooled and homogenized (5 strokes of a Teflon/glass homogenizer) in Hank's saline. The homogenate was passed through a 350μ filter to remove large debris and a 210μ filter to remove large vessels. The microvessels were trapped on a 85μ filter. The microvessels were resuspended in Hank's saline and digested with 7.5 mg/ml bacterial collagenase (Boeringher Mannheim, Indianapolis) Hank's saline for 1 hour at 37° C. […]
as §1

Q: How did the “increase in endothelial cell activation (in words)” value [1] turn out when CCCCCCCCCCCCCC(=O)OC1C(C)C2(O)C(C=C(CO)CC3(O)C(=O)C(C)=CC32)C2C(C)(C)C12OC(C)=O (stereo not drawn) [4-α PMA] was run?
A: Its value is “not”.

Q: What does the source list for CCCC(=O)OC1C(C)C2(O)C(C=C(CO)CC3(O)C(=O)C(C)=CC32)C2C(C)(C)C12OC(=O)CCC (stereo not drawn) [4-β PDBu, 4-β phorbol 12,13-dibutyrate]?
A: increase in PA activity associated with the cell layer ([1]; confluent cells, 48 hours): 12 fold; increase in PA released into the media ([1]; confluent cells, 48 hours): 12 fold; increase in cell number ([1]; confluent cells, 48 hours): two fold increase in cell number; increase in endothelial cell activation (in words) [1]: increase in activation occurred

Q: CCCCCCCCCCCCCC(=O)OC1C(C)C2(O)C(C=C(CO)CC3(O)C(=O)C(C)=CC32)C2C(C)(C)C12OC(C)=O (stereo not drawn) [4-β PMA] was tested. Which pIC50 ([1]; Bos taurus, Endothelial cell, dose-response curves for phorbol esters) did it give?
A: The pIC50 was 8.30.

Q: What about the “increase in endothelial cell activation (in words)” value [1] of the same compound?
A: The value was “increase in activation occurred”.

Q: Which results are given for N#CC1=C(N)Oc2c(ccc3ccccc23)C1c1cccc([N+](=O)[O-])c1 (stereo not shown) [Example 6, 2 Amino-4-(3-nitrophenyl)-4H-naphtho[1,2-b]pyran-3-carbonitrile]?
A: development of increased permeability and blood flow (in words) [2]: prevented the development of increased permeability and blood flow; Permeability, Aorta ([2]; aorta, diabetic rats): 99.00 µg/g/min; Blood Flow, Brain ([2]; brain, diabetic rats): 0.88 mL/min/g; Permeability, Brain ([2]; brain, diabetic rats): 19.00 µg/g/min; Permeability, Muscle ([2]; muscle, diabetic rats): 63.00 µg/g/min; Blood Flow, Nerve ([2]; nerve, diabetic rats): 0.05 mL/min/g; Permeability, Nerve ([2]; nerve, diabetic rats): 63.00 µg/g/min; Blood Flow, Retina ([2]; retina, diabetic rats): 0.40 mL/min/g; Permeability, Retina ([2]; retina, diabetic rats): 59.00 µg/g/min; BSA Clearance ([3]; 20 μM): 179 µg/g/min; Blood Flow ([3]; 20 μM): 0.184 mL/g/min; BSA Clearance ([3]; 50 μM): 158 µg/g/min; Blood Flow ([3]; 50 μM): 0.168 mL/g/min; pIC50 [4]: 7.60

Q: Which BSA Clearance ([3]; 20 μM) does the source give for N#CC1=C(N)Oc2c(ccc3ccccc23)C1c1ccccc1[N+](=O)[O-] (stereo not shown) [Example 5, 2-Amino-4-(2-nitrophenyl)-4H-naphtho[1,2-b]pyran-3-carbonitrile] here?
A: The BSA Clearance was 163 µg/g/min.

Q: And the “Blood Flow” value ([3]; 20 μM)?
A: Its value is 0.231 mL/g/min.

Q: And the pIC50 [4]?
A: Its pIC50 is 6.30.

Q: CCCC(=O)OC1C(C)C2(O)C(C=C(CO)CC3(O)C(=O)C(C)=CC32)C2C(C)(C)C12OC(=O)CCC (stereo not drawn) [4-α PDBu] was tested. Which “increase in endothelial cell activation (in words)” value [1] did it give?
A: The value was “not”.
